Starred links: 1 amine or outer side, 2 acyl side, 3 side chain; linkers in the order of their positions; H or OH if unused. Non-standard residues stand in square brackets, D forms with d. Residues, ends and D or L forms follow the SMILES beside them. ξ: configuration not given here. X1 = Cn1c(=NC(N)=O)ccn(C2SC(C(O)C(N[*:1])C(=O)[*:2])C(O)C2O)c1=O; Orn(N5-OH,N5-Ac) = CC(=O)N(O)CCC[C@H](N)C(=O)O; ξT = CC(O)C(N)C(=O)O; ξA = CC(N)C(=O)O

What all share (assay): Hole test, inhibiting areola diameter, DST agar
Common to all, as to type: cell-based

One assay deals with Prot. 1017. The settings on record: 1000 μg/ml, medium DST agar. An excerpt: (§1) Activity against the germs listed below is found in vitro, on the basis of the diameter of the inhibiting areola.
The next assay deals with E. coli T 7. Also noted: unit not given here. The settings on record: medium DST agar.
From the text: as §1

For another assay, the system named is E. coli 14. Also noted: unit not given here. The settings on record: medium DST agar.
From the text: as §1

For the next assay, the system named is Staph. 133. The settings on record: 1000 μg/ml, medium DST agar.
From the text: as §1

Regarding `CC(=O)N(O)CCC[C@H](NC(=O)[C@H](CCCN(O)C(C)=O)NC(=O)[C@@H](N)CCCN(O)C(C)=O)C(=O)NC(C(=O)O)C(O)C1SC(n2ccc(=O)n(C)c2=O)C(O)C1O` (some centres unmarked) [Compound 24], in the assay on Prot. 1017, the “Inhibiting areola diameter Prot. 1017” value amounted to 18. In addition, the “Inhibiting areola diameter E. coli T 7” value with E. coli T 7 (100 μg/ml) is 18. In the assay on E. coli 14 (1000 μg/ml), the “Inhibiting areola diameter E. coli 14” value was 18.

Regarding `CC(=O)N(O)CCC[C@H](NC(=O)[C@H](CCCN(O)C(C)=O)NC(=O)[C@@H](N)CCCN(O)C(C)=O)C(=O)NC(C(=O)NC(C(=O)O)C(O)C1SC(n2ccc(=NC(N)=O)n(C)c2=O)C(O)C1O)C(C)O` (some centres unmarked) [Compound 20] (H-[Orn(N5-OH,N5-Ac)][Orn(N5-OH,N5-Ac)][Orn(N5-OH,N5-Ac)][ξT][X1]-OH), in the assay with Prot. 1017, the “Inhibiting areola diameter Prot. 1017” value came out at 17. Moreover, the “Inhibiting areola diameter Staph. 133” value in the assay with Staph. 133 is recorded as 25. In addition, the “Inhibiting areola diameter E. coli T 7” value with E. coli T 7 (100 μg/ml) amounted to 14; with E. coli T 7 (1000 μg/ml) it was 15. The figures for the “Inhibiting areola diameter E. coli 14” value in the assay with E. coli 14 (100 μg/ml) and with E. coli 14 (1000 μg/ml) were 13 and 14, respectively.

Regarding `CC(=O)N(O)CCC[C@H](NC(=O)[C@H](CCCN(O)C(C)=O)NC(=O)[C@@H](N)CCCN(O)C(C)=O)C(=O)NC(C(=O)O)C(O)C1SC(n2ccc(=NC(N)=O)n(C)c2=O)C(O)C1O` (some centres unmarked) [Compound 13], the “Inhibiting areola diameter Prot. 1017” value with Prot. 1017 was 20. Further, the “Inhibiting areola diameter E. coli T 7” value with E. coli T 7 (1000 μg/ml) came out at 19. Besides, in the assay with E. coli 14 (1000 μg/ml), the “Inhibiting areola diameter E. coli 14” value came out at 20.

Consider `CC(=O)N(O)CCC[C@H](N)C(=O)NC(C(=O)O)C(O)C1SC(n2ccc(=NC(N)=O)n(C)c2=O)C(O)C1O` (some centres unmarked) [Compound 11], for which the entries for the “Inhibiting areola diameter E. coli T 7” value in the assay on E. coli T 7 (10 μg/ml) and in the assay on E. coli T 7 (100 μg/ml) were 13 and 18, respectively. Besides, the “Inhibiting areola diameter E. coli 14” value in the assay on E. coli 14 (10 μg/ml) was 18; in the assay on E. coli 14 (100 μg/ml) it was 13.

Consider `CC(=O)N(O)CCC[C@H](NC(=O)[C@H](CCCN(O)C(C)=O)NC(=O)[C@@H](N)CCCN(O)C(C)=O)C(=O)NC(C)C(=O)NC(C(=O)O)C(O)C1SC(n2ccc(=NC(N)=O)n(C)c2=O)C(O)C1O` (some centres unmarked) [Compound 9] (H-[Orn(N5-OH,N5-Ac)][Orn(N5-OH,N5-Ac)][Orn(N5-OH,N5-Ac)][ξA][X1]-OH), for which the results for the “Inhibiting areola diameter E. coli T 7” value in the assay on E. coli T 7 (10 μg/ml) and in the assay with E. coli T 7 (100 μg/ml) were 28 and 34, respectively. Moreover, the “Inhibiting areola diameter E. coli 14” value in the assay with E. coli 14 (10 μg/ml) turned out to be 30; in the assay on E. coli 14 (100 μg/ml), 34.

The values above are taken from US4626525A, “Antibiotics, preparation and use of and intermediates therefor” (Bayer Aktiengesellschaft, priority 1983, dated 1986).
